As usually defined, the EC50 is the concentration giving half of the maximal effect.

Structures are written as SMILES. Read-outs that look alike come from different tables or passages of the source.

The test system of assay [1] is NO production. The experiment in a line: Nitric oxide detection by flow cytometry (DAF-FM) in PBMC. The class given is cell-based, human. The settings on record: for NO production increase: monocytes, 5h. The method, then: PBMC (0.25x10^6) were suspended in DMEM medium and exposed to solvent control, AITC or 100 µM of the NO-donor SNAP (positive control) in 96-well plates for 30-270 min in a humidified incubator (5% CO2, 37°C). After that, cells were then loaded with 0.5 µM DAF-FM diacetate prepared in HBSS buffer for another 30 min. DAF-FM loading at this low concentration allows reducing the background fluorescence and improving the signal to noise ratio in a single cell ([34]). After incubation, the cells were washed twice with PBS, followed by 30 min. de-esterification of the intracellular diacetates in the dark at room temperature. Fluorescence signals (ex 488 nm, em 530± 30 nm) were monitored using a FACSCalibur™ flow cytometer. The median fluorescence intensity (MFI) of each sample was calculated using FlowJo software (Ashland, Oregon, USA). DAF-FM-DA has a detection limit of about 5 nM NO ([35]).
Figure 3 AITC stimulates NO production and exerts bactericidal activity in dependence of the TAS2R38 haplotype. PBMC were isolated from AVI/AVI or PAV/PAV genotype subjects and (A) exposed to 0.01% DMSO (SC), AITC, the NO-donor SNAP (positive control), or the NO scavenger cPTIO for the indicated time points. Then, 0.5 µM DAF-FM diacetate was added for 30 min. Fluorescence signals (ex 488 nm, em 530± 30 nm) were monitored using a FACSCalibur™. The median fluorescence intensity (MFI) of each sample was calculated using FlowJo software (Ashland, Oregon, USA). A representative histogram of one PAV/PAV subject is shown on the top, (B) incubated with E. coli K-12 at MOI 0.5 and exposed to 0.01% DMSO (SC) or AITC for 120 min at 37°C. Cell membrane potential depolarization was determined by staining bacteria with 1 µg/ml DiBAC4(3) for 10 min, in the dark at room temperature. Representative scattergrams of E. coli K-12 and PBMC treated with E. coli K-12 are given. An FSC/SSC plot was first made and E. coli K-12 cells gated. The population was copied to a SSC/DiBAC4(3)-scatterplot identifying the percentage of depolarized bacteria. Bars are mean value + SD, *p < 0.05, **p < 0.01. Significance of difference was calculated relative to the respective control by one-way ANOVA. […]
(A flow cytometer gives signals particle by particle.)

Assay [2] deals with E. coli K-12. The experiment in a line: Bactericidal activity of PBMC co-incubated with E. coli K-12 (DiBAC4(3) depolarization). It is filed as cell-based, Escherichia coli. The settings on record: MOI 0.5. The method, then: E. coli K-12 bacteria were grown in Luria-Bertani medium at 37°C to mid-logarithmic-phase as determined by OD600. Next, PBMC (1x10^6/mL) were incubated with E. coli K-12 at MOI 0.5 in RPMI 1640 medium supplemented with 2% heat-inactivated fetal calf serum and exposed to the test compounds for 120 min in a humidify condition (5% CO2, 37°C). Thereafter, 1 µg/mL of the membrane potential dye DiBAC4(3) was added and incubated for 10 min at room temperature in the dark. Subsequently, the cells were washed once with PBS and centrifuged at 4500 x g for 10 min. The percentage of depolarized bacteria was determined using a FACSCalibur™ flow cytometer with an excitation wavelength of 493 nm.
Figure 3 AITC stimulates NO production and exerts bactericidal activity in dependence of the TAS2R38 haplotype. […] Fluorescence signals (ex 488 nm, em 530± 30 nm) were monitored using a FACSCalibur™. The median fluorescence intensity (MFI) of each sample was calculated using FlowJo software (Ashland, Oregon, USA). […] Cell membrane potential depolarization was determined by staining bacteria with 1 µg/ml DiBAC4(3) for 10 min, in the dark at room temperature. […] Significance of difference was calculated relative to the respective control by one-way ANOVA. […]

Assay [3] deals with TNF-α, IL-1β, IL-2, IL-6, IL17-A, IL-10. Kind of assay: Cytokine secretion of CD3/CD28 mAbs stimulated PBMC (MACSplex / ELISA). The class given is cell-based, human. The method, then:
PBMC (1x10^6/mL) cultured in RPMI 1640 medium supplemented with 10% heat-inactivated fetal calf serum, 2 mM L-glutamine, 100 U/ml penicillin/streptomycin were stimulated with 0.5 ng/ml CD3/CD28 MAbs and exposed to the test compounds. After 24 h, supernatants were collected and stored at -80°C until analysis using the human MACSplex cytokine 12-kit (Miltenyi Biotec GmbH, Bergisch Gladbach, Germany) according to manufacturer’s protocol to quantify cytokine secretion. Supernatants were also used for photometric quantification by the human TNF-alpha or IL-1β ELISA Ready-Set-Go kit from eBIoscience (Frankfurt, Germany) according to the manufacturer’s instructions.
Figure 6 In […] PBMC, AITC triggers MAPK activation as well as TNF-α release in dependence of the TAS2R38 genotype. PBMC were exposed to AITC or 0.01% DMSO (SC) together with 0.5 ng/mL CD3/CD28 MAbs for 24h (A, B). Cytokine secretion was analyzed using the human MACSplex cytokine 12-kit or ELISA kits. Results are mean values + SD and given as fold of the solvent control. Significance of difference was determined compared to the respective SC as determined by one-way ANOVA, *p < 0.05, **p < 0.01.
In general terms: An ELISA detects its analyte on a solid surface through an enzyme-linked reagent.

Assay [4] has as its system TRPA1. The conditions noted are these: TRPA1 overexpressing cells, read-out: EC50 for the activation of TRPA1, cited from earlier work.
Assay [5] has as its system TAS2R38-PAV receptor. Further details: method as in PMID 20022913. The settings on record: cited from earlier work.

For `C=CCN=C=S` [AITC, allyl isothiocyanate], the “NO in monocyte cell population” value in assay [1] (AITC ≥ 10 µM, 1h, PAV/PAV (not AVI/AVI)) was “insignificant increase”. Moreover, the “NO production in the lymphocyte population” value in assay [1] (PAV/PAV vs AVI/AVI, NO only detected after 5h at 100 µM AITC) is recorded as “no differential regulation”. In addition, the NO production increase in assay [1] (AVI/AVI, 100 µM AITC) stood at 41%; in assay [1] (PAV/PAV, 3 µM AITC), 46%. Moreover, the bactericidal activity result in assay [2] (AVI/AVI cells) is listed as “no effect”; in assay [2] (PAV/PAV cells), “increased bactericidal activity”. Besides, the “modulation of IL-2, IL-6, IL17-A and IL-10” value in assay [3] (CD3/CD28 mAbs stimulated PBMC) was “not clearly genotype dependent”. The “effect on TNF-α” value in assay [3] (CD3/CD28 mAbs stimulated cells, AVI/AVI group, 24h) was “No effect”. Further, the TNF-α secretion entry in assay [3] (CD3/CD28 mAbs stimulated cells, PAV/PAV, 24h) was “Similar, but less strong effects”. For the same molecule, the IL-1β result in assay [3] (CD3/CD28 mAbs stimulated, PAV/PAV vs. AVI/AVI cells) is given as “differential inhibition”. In addition, the EC50 in assay [4] (ref 45) is […]; in assay [4] (ref 46) it was […]. Moreover, the “activation of TAS2R38 taster variant among 25 TAS2Rs” value in assay [5] (HEK293T-Gα16gust44 cells transiently transfected) is reported as “selectively triggered the taster variant”. Also, in assay [5], the “activation of the TAS2R38-PAV receptor” value is given as “activated”. In assay [5] (heterologous expressed TAS2R38-PAV, in vitro), the threshold concentration is listed as […].
